Paper PMC10337138 (Acta Neuropathologica Communications, 2023)

Assays:
BRK/PTK6 = BRK/PTK6 (Homo sapiens, UniProt Q13882); experiment: AssayQuant Sox-peptide kinase panel, […] compound, […] ATP; […] inhibition; assay type: biochemical
BLK = BLK (Homo sapiens, UniProt P51451); experiment: as above; assay type: biochemical
Chain of BLK (P51451 2-505): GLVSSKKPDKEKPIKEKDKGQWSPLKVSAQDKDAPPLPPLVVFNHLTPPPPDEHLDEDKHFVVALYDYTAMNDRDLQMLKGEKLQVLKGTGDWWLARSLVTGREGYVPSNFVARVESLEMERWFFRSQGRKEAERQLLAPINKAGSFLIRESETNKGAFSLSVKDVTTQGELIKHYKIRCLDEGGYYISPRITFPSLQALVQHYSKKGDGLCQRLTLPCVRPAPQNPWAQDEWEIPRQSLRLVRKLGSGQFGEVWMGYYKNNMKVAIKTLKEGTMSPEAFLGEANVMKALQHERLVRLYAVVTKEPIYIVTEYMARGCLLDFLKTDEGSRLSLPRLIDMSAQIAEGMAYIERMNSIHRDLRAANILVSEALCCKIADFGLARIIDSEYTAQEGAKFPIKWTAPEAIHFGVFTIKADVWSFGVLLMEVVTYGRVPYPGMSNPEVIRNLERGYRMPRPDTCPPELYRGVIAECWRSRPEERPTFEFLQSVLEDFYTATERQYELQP

Chain of BRK/PTK6 (Q13882 whole entry): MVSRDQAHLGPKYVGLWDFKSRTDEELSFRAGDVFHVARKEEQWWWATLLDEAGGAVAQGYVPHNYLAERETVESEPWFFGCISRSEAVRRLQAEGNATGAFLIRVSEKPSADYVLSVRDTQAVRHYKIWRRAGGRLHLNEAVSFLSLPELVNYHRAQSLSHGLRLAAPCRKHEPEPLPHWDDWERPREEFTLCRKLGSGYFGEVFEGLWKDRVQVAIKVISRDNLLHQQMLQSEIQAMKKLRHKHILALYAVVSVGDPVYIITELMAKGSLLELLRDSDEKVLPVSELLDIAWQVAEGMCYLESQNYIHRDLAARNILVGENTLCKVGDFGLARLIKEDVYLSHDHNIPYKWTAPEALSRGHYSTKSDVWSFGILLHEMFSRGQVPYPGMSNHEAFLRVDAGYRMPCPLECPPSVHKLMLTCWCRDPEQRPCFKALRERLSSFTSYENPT

Substance: GB7208
- % inhibition at 1 μM (BRK/PTK6): > 50
- % inhibition at 1 μM (BLK): > 50
